# Measurements reported in ChEMBL document CHEMBL1201862, “PubChem BioAssay data set” (2004).
#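 Exposure lasted 48 hours, with cells grown in 96-well plates and compounds tested at five concentrations. GI50: concentration for 50% inhibition of growth.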 Calls of active or inactive are those of the source. Rule as the data show it: active = GI50 up to about 1.1 µM and inactive = higher.
# How the values were obtained:
# Assay in all cases: NCI tumour cell line growth inhibition, 48 h
# [1] = test system: SNB-75
# [2] = test system: 786-0
# [3] = test system: CCRF-CEM
# [4] = test system: NCI-H23
# [5] = test system: UACC-257
# [6] = test system: SF-295
# [7] = test system: Hs-578T
# [8] = test system: HOP-62
# [9] = test system: SF-539
# [10] = test system: SK-MEL-28
# [11] = test system: NCI-H522
# [12] = test system: HT-29
# [13] = test system: SK-MEL-5
# [14] = test system: UO-31
# [15] = test system: OVCAR-8
# [16] = test system: EKVX
# [17] = test system: A498
# [18] = test system: HOP-92
SMILES,GI50 [1],GI50 [2],GI50 [3],GI50 [4],GI50 [5],GI50 [6],GI50 [7],GI50 [8],GI50 [9],GI50 [10],GI50 [11],GI50 [12],GI50 [13],GI50 [14],GI50 [15],GI50 [16],GI50 [17],GI50 [18]
Cc1cc2c(nn1)CCc1c-2no[n+]1[O-],> 100 µM (inactive),> 100 µM (inactive),> 100 µM (inactive),> 100 µM (inactive),> 100 µM (inactive),> 100 µM (inactive),> 100 µM (inactive),> 100 µM (inactive),> 100 µM (inactive),> 100 µM (inactive),> 100 µM (inactive),> 100 µM (inactive),> 100 µM (inactive),> 100 µM (inactive),> 100 µM (inactive),> 100 µM (inactive),–,–
COc1ccc(/N=N/C(=O)NC(CC(C)C)C(=O)NC(C)C(=O)O)cc1 (stereo unspecified),> 100 µM (inactive),> 100 µM (inactive),6.28 µM (inactive),> 86.5 µM (inactive),23 µM (inactive),9.82 µM (inactive),> 79.3 µM (inactive),> 59.6 µM (inactive),2.04 µM (inactive),17.1 µM (inactive),–,> 40 µM (inactive),5.7 µM (inactive),2.38 µM (inactive),> 43.1 µM (inactive),30 µM (inactive),> 100 µM (inactive),> 100 µM (inactive)
CC(=O)/N=C1\N/C(=C\c2ccc(Cl)cc2)C(=O)N1/C=C1\C(=O)Oc2ccccc2C1=O,27.5 µM (inactive),> 100 µM (inactive),> 100 µM (inactive),> 100 µM (inactive),> 100 µM (inactive),> 100 µM (inactive),1.4 µM (inactive),> 100 µM (inactive),> 100 µM (inactive),> 100 µM (inactive),78.9 µM (inactive),> 100 µM (inactive),47.2 µM (inactive),–,> 100 µM (inactive),13.3 µM (inactive),10.8 µM (inactive),–
O=C(Cc1ccccc1)N/N=C1\C(=O)Nc2ccccc21,37.2 µM (inactive),80.5 µM (inactive),> 100 µM (inactive),95.5 µM (inactive),> 100 µM (inactive),25.8 µM (inactive),65.3 µM (inactive),> 100 µM (inactive),23.1 µM (inactive),–,48.1 µM (inactive),> 100 µM (inactive),95.9 µM (inactive),48.2 µM (inactive),> 100 µM (inactive),72.1 µM (inactive),0.229 µM (active),–
CC(C)(NO)/C(=N\O)c1ccco1,–,> 100 µM (inactive),–,> 100 µM (inactive),> 100 µM (inactive),> 100 µM (inactive),24 µM (inactive),> 100 µM (inactive),> 100 µM (inactive),> 100 µM (inactive),–,> 100 µM (inactive),> 100 µM (inactive),> 100 µM (inactive),> 100 µM (inactive),> 100 µM (inactive),–,> 100 µM (inactive)
O=C(CN1CCCCC1)c1ccc2[nH]c(=O)oc2c1,0.957 µM (active),> 100 µM (inactive),> 100 µM (inactive),> 100 µM (inactive),> 100 µM (inactive),> 100 µM (inactive),> 100 µM (inactive),> 100 µM (inactive),> 100 µM (inactive),> 100 µM (inactive),–,> 100 µM (inactive),> 100 µM (inactive),–,> 100 µM (inactive),> 100 µM (inactive),> 100 µM (inactive),–
NC(=O)CN1C=CCC(C(N)=O)=C1 [CARICOTAMIDE],> 100 µM (inactive),> 100 µM (inactive),> 100 µM (inactive),> 100 µM (inactive),> 100 µM (inactive),> 100 µM (inactive),–,> 100 µM (inactive),> 100 µM (inactive),–,> 100 µM (inactive),> 100 µM (inactive),> 100 µM (inactive),> 100 µM (inactive),> 100 µM (inactive),> 100 µM (inactive),> 100 µM (inactive),> 100 µM (inactive)
CC(=O)NC(CCCCN(Cc1ccccc1)C(=O)NCCCl)C(=O)NCc1ccccc1 (stereo unspecified),> 100 µM (inactive),> 100 µM (inactive),> 100 µM (inactive),> 100 µM (inactive),> 100 µM (inactive),> 100 µM (inactive),–,> 100 µM (inactive),> 100 µM (inactive),> 100 µM (inactive),> 100 µM (inactive),> 100 µM (inactive),–,> 100 µM (inactive),> 100 µM (inactive),> 100 µM (inactive),–,> 100 µM (inactive)
O=C1/C(=c2\s/c(=C\c3ccccc3)c(=O)n2-c2ccccc2)SC(=S)N1c1ccccc1,19.4 µM (inactive),45.8 µM (inactive),32.8 µM (inactive),76.7 µM (inactive),72.9 µM (inactive),30.3 µM (inactive),34.4 µM (inactive),–,21.5 µM (inactive),63.1 µM (inactive),–,> 100 µM (inactive),53.2 µM (inactive),–,82.6 µM (inactive),35.6 µM (inactive),39.2 µM (inactive),33 µM (inactive)
COc1ccc(C2C3=C(Nc4ncnn42)c2ccccc2OC3c2ccccc2)cc1 (stereo unspecified),–,47.1 µM (inactive),–,43.6 µM (inactive),70 µM (inactive),27.8 µM (inactive),19.1 µM (inactive),> 100 µM (inactive),40 µM (inactive),–,–,–,14.9 µM (inactive),50.1 µM (inactive),80.2 µM (inactive),–,1.03 µM (active),–
COc1ccc(/C(C)=N/OC(=O)c2c(-c3ccccc3Cl)noc2C)cc1CN1CCOCC1,28.4 µM (inactive),24.5 µM (inactive),66.7 µM (inactive),32.6 µM (inactive),17.9 µM (inactive),11.5 µM (inactive),28.9 µM (inactive),19.1 µM (inactive),24.8 µM (inactive),19.7 µM (inactive),17.8 µM (inactive),18.3 µM (inactive),17.3 µM (inactive),3.75 µM (inactive),29.3 µM (inactive),–,–,24.2 µM (inactive)
COc1cc(CNc2nc3cc(C(F)(F)F)ccc3nc2-c2ccccc2)cc(OC)c1OC,5.79 µM (inactive),30 µM (inactive),24.9 µM (inactive),21 µM (inactive),33.6 µM (inactive),41.8 µM (inactive),37.4 µM (inactive),43.5 µM (inactive),43.1 µM (inactive),49.7 µM (inactive),22.3 µM (inactive),23.7 µM (inactive),25.2 µM (inactive),31.6 µM (inactive),33.2 µM (inactive),10.9 µM (inactive),–,–
O=c1c(C(c2ccccc2)c2c(O)oc3cc(O)ccc3c2=O)c(O)oc2cc(O)ccc12,> 100 µM (inactive),–,> 100 µM (inactive),> 100 µM (inactive),> 100 µM (inactive),> 100 µM (inactive),> 100 µM (inactive),> 100 µM (inactive),> 100 µM (inactive),> 100 µM (inactive),–,> 100 µM (inactive),52 µM (inactive),> 100 µM (inactive),> 100 µM (inactive),> 100 µM (inactive),> 100 µM (inactive),> 100 µM (inactive)
CCOC(=O)NC(Nc1ncn(C(NC(=O)OCC)(C(F)(F)F)C(F)(F)F)n1)(C(F)(F)F)C(F)(F)F,> 100 µM (inactive),> 100 µM (inactive),> 100 µM (inactive),> 100 µM (inactive),> 100 µM (inactive),> 100 µM (inactive),> 100 µM (inactive),> 100 µM (inactive),> 100 µM (inactive),> 100 µM (inactive),–,> 100 µM (inactive),> 100 µM (inactive),12.2 µM (inactive),> 100 µM (inactive),> 100 µM (inactive),> 100 µM (inactive),> 100 µM (inactive)
OC(c1ccc(-c2ccccc2)cc1)(c1ccc(-c2ccccc2)cc1)c1ccc(-c2ccccc2)cc1,–,> 100 µM (inactive),> 10 µM (inactive),> 100 µM (inactive),> 100 µM (inactive),> 100 µM (inactive),> 100 µM (inactive),> 100 µM (inactive),–,> 100 µM (inactive),> 100 µM (inactive),> 100 µM (inactive),> 100 µM (inactive),> 100 µM (inactive),> 100 µM (inactive),> 100 µM (inactive),–,–
O=c1cc(NNc2ccc3ccccc3c2)[nH]c(=S)[nH]1,–,6.75 µM (inactive),–,> 100 µM (inactive),> 100 µM (inactive),61.9 µM (inactive),25 µM (inactive),27.4 µM (inactive),30.3 µM (inactive),49.9 µM (inactive),–,16.4 µM (inactive),> 100 µM (inactive),> 100 µM (inactive),44.9 µM (inactive),> 100 µM (inactive),> 100 µM (inactive),28.1 µM (inactive)
CC(C)C(/C=C/c1ccc(Cl)cc1)=N\NC(=S)NN,22.9 µM (inactive),20.5 µM (inactive),2.68 µM (inactive),20 µM (inactive),22.5 µM (inactive),22.1 µM (inactive),14.6 µM (inactive),31.6 µM (inactive),25.1 µM (inactive),39.7 µM (inactive),6.58 µM (inactive),23.3 µM (inactive),33 µM (inactive),17.9 µM (inactive),12 µM (inactive),–,23.8 µM (inactive),–
